From the supplement of paper PMC10331698
± gives the standard deviation of the averaged measurements.

Tests used:
Experiment in all cases: level (log10 ratio to DMSO vehicle control); higher = higher biomarker level / cell amount than vehicle control
[1] = compound: C=C(C)C(=O)OCC(F)(F)C(F)(F)C(F)(F)F [2,2,3,3,4,4,4-Heptafluorobutyl methacrylate]; details: in DMSO
Procedure: (§1)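 BioMAP Diversity Plus panel of 12 human primary cell co-culture systems (3C, 4H, LPS, SAg, BT, BF4T, BE3C, CASM3C, HDF3CGF, KF3CT, MyoF, Mphg). Compounds were added 1 h before stimulation and left for 24 h (MyoF 48 h; BT 72 h for soluble read-outs or 6 d for IgG). Biomarkers were read by ELISA, cytotoxicity by SRB, PBMC viability and proliferation by Alamar Blue. Each well value was divided by the mean of 8 DMSO control wells on the same plate and log10 transformed; duplicate blinded samples were tested at 4 concentrations.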

[2] = compound: C=CC(=O)OCC(F)(F)C(F)(F)C(F)(F)C(F)(F)C(F)(F)C(F)(F)C(F)(F)C(F)F [1H,1H,9H-Perfluorononyl acrylate]; details: in DMSO
Procedure: as §1

[3] = compound: FC(F)(F)C(F)(F)C(F)(F)C(F)(F)CCI [1H,1H,2H,2H-Perfluorohexyl iodide]; details: in DMSO
Procedure: as §1

[4] = compound: FC(F)(F)COC(OCC(F)(F)F)OCC(F)(F)F [tris(Trifluoroethoxy)methane]; details: in DMSO
Procedure: as §1

[5] = compound: O=P(O)(O)CCC(F)(F)C(F)(F)C(F)(F)C(F)(F)C(F)(F)C(F)(F)F [2-(Perfluorohexyl)ethylphosphonic acid]; details: in DMSO
Procedure: as §1

[6] = compound: OCC(F)(F)C(F)(F)C(F)(F)C(F)(F)C(F)(F)C(F)(F)F [6:1 Fluorotelomer alcohol]; details: in DMSO
Procedure: as §1

[7] = compound: OCCCC(F)(F)C(F)(F)C(F)(F)C(F)(F)C(F)(F)C(F)(F)C(F)(F)C(F)(F)F [3-(Perfluorooctyl)propanol]; details: 6700 nM; in DMSO
Procedure: as §1

| Test System | level (log10) ([1]; 6700 nM) | level (log10) ([1]; 20000 nM) | level (log10) ([1]; 60000 nM) | level (log10) ([2]; 6700 nM) | level (log10) ([2]; 20000 nM) | level (log10) ([2]; 60000 nM) | level (log10) ([3]; 6700 nM) | level (log10) ([3]; 20000 nM) | level (log10) ([3]; 60000 nM) | level (log10) ([4]; 6700 nM) | level (log10) ([4]; 20000 nM) | level (log10) ([4]; 60000 nM) | level (log10) ([5]; 6700 nM) | level (log10) ([5]; 20000 nM) | level (log10) ([5]; 60000 nM) | level (log10) ([6]; 6700 nM) | level (log10) ([6]; 20000 nM) | level (log10) ([6]; 60000 nM) | level (log10) [7] |
| --- | --- | --- | --- | --- | --- | --- | --- | --- | --- | --- | --- | --- | --- | --- | --- | --- | --- | --- | --- |
| lMphg:CCL3/MIP-1alpha | -0.0095 ± 0.0092 | -0.0355 ± 0.044 | -0.0065 ± 0.012 | 0.015 | 0.012 ± 0.023 | 0.061 ± 0.0028 | -0.0185 ± 0.00071 | -0.0515 ± 0.023 | -0.013 ± 0.014 | -0.03 ± 0.021 | -0.035 ± 0.024 | -0.0245 ± 0.018 | 0.035 ± 0.044 | 0.019 ± 0.028 | 0.0315 ± 0.019 | 0.009 ± 0.017 | -0.0095 ± 0.036 | 0.0235 ± 0.083 | -0.018 ± 0.0014 |
| HDF3CGF:CD54/ICAM-1 | -0.008 ± 0.0071 | -0.013 ± 0.0071 | -0.007 ± 0.0099 | -0.021 ± 0.018 | -0.0435 ± 0.00071 | -0.0765 ± 0.042 | -0.023 ± 0.013 | -0.0005 ± 0.005 | -0.0085 ± 0.016 | -0.0195 ± 0.00071 | -0.013 ± 0.034 | -0.008 ± 0.0057 | 0.045 ± 0.04 | 0.0145 ± 0.059 | 0.0065 ± 0.044 | -0.0075 ± 0.011 | 0.008 ± 0.02 | 0.0075 ± 0.011 | -0.113 ± 0.15 |
| CASM3C:IL-6 | 0.004 ± 0.031 | 0.0105 ± 0.028 | 0.022 ± 0.0071 | -0.036 ± 0.042 | 0.0085 ± 0.074 | -0.031 ± 0.047 | 0.0195 ± 0.028 | 0.005 ± 0.025 | 0.036 ± 0.098 | -0.019 ± 0.0028 | -0.0295 ± 0.011 | 0.005 ± 0.067 | -0.0285 ± 0.005 | -0.0425 ± 0.018 | -0.0095 ± 0.025 | -0.008 ± 0.025 | -0.0165 ± 0.042 | -0.0005 ± 0.0021 | -0.0335 ± 0.0021 |
| lMphg:CXCL8/IL-8 | 0.037 ± 0.038 | 0.026 ± 0.021 | 0.027 ± 0.038 | 0.014 ± 0.02 | 0.0025 ± 0.0064 | 0.038 ± 0.014 | -0.0325 ± 0.0035 | -0.006 ± 0.0085 | 0.0355 ± 0.018 | -0.0095 ± 0.016 | -0.018 ± 0.0042 | -0.007 ± 0.044 | -0.008 ± 0.0028 | -0.0315 ± 0.033 | 0.0385 ± 0.026 | 0.0335 ± 0.016 | 0.0395 ± 0.035 | 0.0375 ± 0.0092 | 0.0655 ± 0.015 |
| lMphg:CD106/VCAM-1 | 0.0005 ± 0.0021 | 0.005 ± 0.04 | 0.0115 ± 0.026 | -0.03 | -0.029 ± 0.0099 | -0.0405 ± 0.0092 | 0.0015 ± 0.018 | -0.0005 ± 0.016 | 0.009 ± 0.013 | 0.0065 ± 0.0035 | 0.023 ± 0.0099 | -0.0145 ± 0.0092 | -0.001 ± 0.0028 | 0.006 ± 0.016 | -0.002 ± 0.038 | 0.0035 ± 0.021 | 0.0035 ± 0.032 | 0.0115 ± 0.04 | 0.001 ± 0.0099 |
| 3C:CD142/Tissue Factor | -0.012 ± 0.021 | -0.017 ± 0.0014 | 0.001 ± 0.0099 | -0.007 ± 0.0028 | -0.0145 ± 0.016 | -0.024 ± 0.033 | -0.0125 ± 0.028 | 0.0155 ± 0.047 | 0.0725 ± 0.037 | -0.0195 ± 0.07 | -0.009 ± 0.052 | -0.028 | 0.0325 ± 0.0078 | 0.04 ± 0.035 | 0.119 ± 0.0021 | -0.007 ± 0.0014 | 0.004 ± 0.014 | 0.0005 ± 0.026 | -0.054 ± 0.016 |
| lMphg:IL-1alpha | 0.01 ± 0.0057 | 0.0245 ± 0.012 | 0.03 ± 0.034 | 0.006 ± 0.038 | -0.0025 ± 0.054 | 0.0195 ± 0.063 | 0.008 | 0.0045 ± 0.012 | 0.0345 ± 0.0078 | -0.031 ± 0.014 | -0.03 ± 0.0028 | -0.006 ± 0.03 | -0.0265 ± 0.021 | -0.029 ± 0.024 | 0.0075 ± 0.084 | 0.007 ± 0.04 | 0.006 ± 0.061 | 0.001 ± 0.034 | -0.0015 ± 0.03 |
| BE3C:PAI-I | -0.0505 ± 0.043 | -0.003 ± 0.055 | 0.017 ± 0.064 | -0.029 ± 0.031 | -0.003 ± 0.018 | -0.02 ± 0.011 | -0.0335 ± 0.0064 | -0.0305 ± 0.036 | -0.051 ± 0.0085 | -0.0015 ± 0.0035 | -0.0005 ± 0.00071 | -0.0045 ± 0.00071 | -0.036 ± 0.0028 | -0.0065 ± 0.012 | 0.052 ± 0.04 | -0.0235 ± 0.0092 | -0.007 ± 0.0014 | 0.026 ± 0.011 | -0.008 ± 0.0014 |
| CASM3C:Proliferation | -0.012 ± 0.027 | -0.0015 ± 0.0035 | 0.0215 ± 0.012 | 0.03 ± 0.034 | 0.0175 ± 0.057 | -0.03 ± 0.093 | -0.01 ± 0.0071 | -0.0155 ± 0.016 | -0.0535 ± 0.0064 | -0.033 ± 0.021 | -0.042 ± 0.0014 | 0.021 ± 0.027 | -0.0385 ± 0.0064 | -0.05 ± 0.013 | -0.06 ± 0.0085 | 0.02 ± 0.037 | 0.0125 ± 0.0078 | -0.664 ± 0.24 | -0.026 ± 0.033 |
| BE3C:uPA | -0.005 ± 0.013 | 0.005 ± 0.011 | -0.002 ± 0.025 | -0.0335 ± 0.0092 | 0.0015 ± 0.0092 | -0.0195 ± 0.0035 | -0.001 ± 0.0071 | -0.007 ± 0.0071 | -0.001 ± 0.0014 | 0.0075 ± 0.021 | -0.004 ± 0.0071 | -0.0175 ± 0.00071 | -0.016 ± 0.0099 | -0.004 ± 0.0071 | 0.0075 ± 0.012 | -0.0055 ± 0.0021 | -0.005 ± 0.013 | 0.001 ± 0.0014 | -0.005 ± 0.0085 |
| CASM3C:Serum Amyloid A | 0.0145 ± 0.0078 | 0.03 ± 0.021 | 0.0075 ± 0.0064 | -0.014 ± 0.014 | -0.0825 ± 0.071 | -0.067 ± 0.0071 | -0.017 ± 0.0042 | -0.0155 ± 0.039 | 0.0305 ± 0.1 | -0.028 ± 0.027 | -0.026 ± 0.04 | 0.0045 ± 0.044 | 0.004 ± 0.023 | -0.0045 ± 0.0035 | 0.0235 ± 0.0092 | -0.001 ± 0.013 | 0.01 ± 0.017 | -0.052 ± 0.018 | -0.005 ± 0.024 |
| MyoF:Collagen III | 0.0075 ± 0.0021 | 0 ± 0.0014 | 0.0085 ± 0.0078 | 0.0015 ± 0.005 | -0.029 ± 0.011 | -0.102 ± 0.0014 | 0.0045 ± 0.0092 | -0.007 ± 0.0014 | -0.007 ± 0.021 | 0.0035 ± 0.0035 | -0.0005 ± 0.019 | 0.009 ± 0.0042 | 0.003 ± 0.0042 | 0.009 ± 0.0014 | -0.009 ± 0.031 | -0.005 | -0.0015 ± 0.005 | 0.0105 ± 0.005 | -0.0205 ± 0.00071 |
| KF3CT:CXCL10/IP-10 | 0.0055 ± 0.00071 | -0.001 ± 0.0057 | 0.0085 ± 0.005 | -0.003 ± 0.024 | -0.01 ± 0.017 | -0.015 ± 0.0099 | 0.012 ± 0.045 | 0.0205 ± 0.028 | 0.017 ± 0.05 | 0.005 ± 0.0042 | -0.0045 ± 0.0064 | -0.0025 ± 0.005 | -0.009 ± 0.0057 | 0.0035 ± 0.0078 | 0.0045 ± 0.005 | 0.0155 ± 0.0035 | 0.0055 ± 0.015 | 0.011 | -0.053 ± 0.02 |
| lMphg:CD69 | -0.0035 ± 0.044 | -0.0335 ± 0.025 | -0.0615 ± 0.047 | -0.048 ± 0.0028 | -0.0265 ± 0.025 | -0.0255 ± 0.03 | -0.019 | -0.013 ± 0.013 | 0.043 ± 0.021 | 0.0225 ± 0.05 | 0.005 ± 0.035 | 0.0095 ± 0.042 | -0.045 ± 0.042 | -0.0285 ± 0.023 | 0.0175 ± 0.053 | -0.007 ± 0.047 | -0.038 ± 0.052 | -0.055 ± 0.073 | 0.018 ± 0.04 |
| CASM3C:CD106/VCAM-1 | 0.0205 ± 0.013 | -0.006 ± 0.04 | 0.001 ± 0.02 | -0.0885 ± 0.028 | -0.0715 ± 0.07 | -0.12 ± 0.067 | -0.023 ± 0.016 | -0.057 ± 0.0057 | -0.031 ± 0.075 | -0.0095 ± 0.005 | -0.02 ± 0.0014 | -0.025 ± 0.0057 | -0.0105 ± 0.035 | 0.041 ± 0.014 | 0.0775 ± 0.044 | -0.0075 ± 0.026 | -0.001 ± 0.024 | -0.074 ± 0.034 | -0.0895 ± 0.019 |
